Source: the supplement of paper PMC11208160

Assay: recombinant UMI read abundance after kanamycin selection (control-corrected) (log10(CPM+1)); higher = more efficient recombination; extreme values may be limits of the assay; sequences stand for … in AGTGCAGAGAAAATCGGCCAGTTTTCTCTGCCTGCAGTCCGCATGCCGTGGGACCCCTTGGGTTCTAACCTGTTGCCTAGATTTATGCAGCGGACTGCCTTTCTCCCAAAGTGATAAACCGG…AGGTTGGTTTCACT; site = the 11-nt donor
Outline: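 The measure is log10(CPM+1) for recombinant UMIs. These were PCR-amplified across the donor–target junction and sequenced after Escherichia coli carrying a donor and donor-binding-loop pair library and a target plasmid with T7-inducible IS621 bridge recombinase was plated on IPTG (0.07 mM) plus kanamycin or unselected. CPM were averaged over two replicates and scaled by control-derived factors.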
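Note: IS621 bridge recombinase in Escherichia coli cells against a fixed T5 target plasmid.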

Compared with “GATTGGACATGGACCGGTTTTCCCGGTAATCCGTATTTGAT (site GATTGGACTAT)”, “GATTGGACATGGACCGGTTTTCCCGGTAATCCGTATTTGAT (site GATTGGACTCT)” is lower in “recombinant UMI read abundance (log10)” value: 0.838 for the first, 0.0264 for the second.

“GATTGGACATGGACCGGTTTTCCCGGTAATCCGTATTTGAT (site GATTGGACTGT)” and “GATTGGACATGGACCGGTTTTCCCGGTAATCCGTATTTGAT (site GATTGGACTTT)” are within 0.2 log units of each other in “recombinant UMI read abundance (log10)” value: 0 for the first, 0.0212 for the second.

“GATTGGACATGGACCGGTTTTCCCGGTAATCCGTATTTGCC (site GATTGGACTGA)” and “GATTGGACATGGACCGGTTTTCCCGGTAATCCGTATTTGCC (site GATTGGACTGC)” are the same in “recombinant UMI read abundance (log10)” value: 0 for the first, 0 for the second.

Going from “GATTGGACATGGACCGGTTTTCCCGGTAATCCGTATTTGCC (site GATTGGACTGG)” to “GATTGGACATGGACCGGTTTTCCCGGTAATCCGTATTTGCC (site GATTGGACTGT)”, the “recombinant UMI read abundance (log10)” value falls from 2.68 to 0.

First: GATTGGACATGGACCGGTTTTCCCGGTAATCCGTATTTGTC (site GATTGGACTGA)
Second: GATTGGACATGGACCGGTTTTCCCGGTAATCCGTATTTGTC (site GATTGGACTGC)
The “recombinant UMI read abundance (log10)” value of the first is higher: 0.657 for the first, 0 for the second.

First: GATTGGACATGGACCGGTTTTCCCGGTAATCCGTATTTGTC (site GATTGGACTGG)
Second: GATTGGACATGGACCGGTTTTCCCGGTAATCCGTATTTGTC (site GATTGGACTGT)
The “recombinant UMI read abundance (log10)” value of the first is higher: 0.913 for the first, 0.172 for the second.

Compared with “GATTTATCATGGACCGGTTTTCCCGGTAATCCGTATTTGTC (site GATTTATCTGA)”, “GATTTCGCATGGACCGGTTTTCCCGGTAATCCGTATTTGGG (site GATTTCGCTCC)” is lower in “recombinant UMI read abundance (log10)” value: 0.525 for the first, 0.00434 for the second.

First: GCAAACGCATGGACCGGTTTTCCCGGTAATCCGTATTTGTG (site GCAAACGCTCA)
Second: GCAACTACATGGACCGGTTTTCCCGGTAATCCGTATTTGTG (site GCAACTACTCA)
The “recombinant UMI read abundance (log10)” value of the first is higher: 1.98 for the first, 1.17 for the second.

First: GCAAGTGCATGGACCGGTTTTCCCGGTAATCCGTATTTGTC (site GCAAGTGCTGA)
Second: GCAATATCATGGACCGGTTTTCCCGGTAATCCGTATTTGCA (site ACAGTATCTTG)
The “recombinant UMI read abundance (log10)” value of the first is lower: 0 for the first, 1.37 for the second.

Compared with “GCAATATCATGGACCGGTTTTCCCGGTAATCCGTATTTGCA (site GCAATATCTTG)”, “GCAATTCCATGGACCGGTTTTCCCGGTAATCCGTATTTGAG (site GCAATTCCTCT)” is lower in “recombinant UMI read abundance (log10)” value: 1.75 for the first, 0.651 for the second.

Going from “GCAATTGCATGGACCGGTTTTCCCGGTAATCCGTATTTGCC (site GCAATTGCTGG)” to “GCAATTTCATGGACCGGTTTTCCCGGTAATCCGTATTTGTA (site GCAATTTCTTA)”, the “recombinant UMI read abundance (log10)” value rises from 0 to 2.26.

“GCACATGCATGGACCGGTTTTCCCGGTAATCCGTATTTGGA (site GCACATGCTTC)” and “GCACCTTCATGGACCGGTTTTCCCGGTAATCCGTATTTGTT (site GCACCTTCTAA)” are within 0.2 log units of each other in “recombinant UMI read abundance (log10)” value: 1.05 for the first, 1.09 for the second.

Going from “GCACGATCATGGACCGGTTTTCCCGGTAATCCGTATTTGTA (site GCACGATCTTA)” to “GCACTGCCATGGACCGGTTTTCCCGGTAATCCGTATTTGCT (site GCACTGCCTAG)”, the “recombinant UMI read abundance (log10)” value falls from 2.74 to 1.41.

Going from “GCACTTCCATGGACCGGTTTTCCCGGTAATCCGTATTTGTT (site GCACTTCCTAA)” to “GCAGAAACATGGACCGGTTTTCCCGGTAATCCGTATTTGGC (site GCAGAAACTGC)”, the “recombinant UMI read abundance (log10)” value rises from 0.561 to 2.87.

First: GCAGTAGCATGGACCGGTTTTCCCGGTAATCCGTATTTGCC (site GCAGTAGCTGG)
Second: GCAGTGGCATGGACCGGTTTTCCCGGTAATCCGTATTTGGT (site GAAGTGGCTAC)
The “recombinant UMI read abundance (log10)” value of the first is higher: 0.831 for the first, 0.0767 for the second.

Compared with “GCAGTGGCATGGACCGGTTTTCCCGGTAATCCGTATTTGGT (site GCAGTGGCTAC)”, “GCAGTGGCATGGACCGGTTTTCCCGGTAATCCGTATTTGGT (site GGAGTGGCTAC)” is lower in “recombinant UMI read abundance (log10)” value: 0.668 for the first, 0.276 for the second.

Compared with “GCAGTGGCATGGACCGGTTTTCCCGGTAATCCGTATTTGGT (site GTAGTGGCTAC)”, “GCATACCCATGGACCGGTTTTCCCGGTAATCCGTATTTGAC (site GCATACCCTGT)” is higher in “recombinant UMI read abundance (log10)” value: 0.0239 for the first, 1.04 for the second.

“GCATCAGCATGGACCGGTTTTCCCGGTAATCCGTATTTGTG (site GCATCAGCTCA)” and “GCATGGGCATGGACCGGTTTTCCCGGTAATCCGTATTTGAG (site GCATGGGCTCT)” are within 0.2 log units of each other in “recombinant UMI read abundance (log10)” value: 1.49 for the first, 1.33 for the second.

First: GCATTATCATGGACCGGTTTTCCCGGTAATCCGTATTTGGC (site GCATTATCTGC)
Second: GCCAAGCCATGGACCGGTTTTCCCGGTAATCCGTATTTGTA (site GCCAAGCCTTA)
The “recombinant UMI read abundance (log10)” value of the first is higher: 2.82 for the first, 1.69 for the second.

“GCCAAGCCATGGACCGGTTTTCCCGGTAATCCGTATTTGTA (site GCCACGCCTTA)” and “GCCAAGCCATGGACCGGTTTTCCCGGTAATCCGTATTTGTA (site GCCAGGCCTTA)” are within 0.2 log units of each other in “recombinant UMI read abundance (log10)” value: 0.00534 for the first, 0.00969 for the second.

Compared with “GCCAAGCCATGGACCGGTTTTCCCGGTAATCCGTATTTGTA (site GCCATGCCTTA)”, “GCCACGACATGGACCGGTTTTCCCGGTAATCCGTATTTGTA (site GCCACGACTTA)” is higher in “recombinant UMI read abundance (log10)” value: 0.00407 for the first, 2.11 for the second.

First: GCCACGACATGGACCGGTTTTCCCGGTAATCCGTATTTGTA (site GCCACGCCTTA)
Second: GCCACGACATGGACCGGTTTTCCCGGTAATCCGTATTTGTA (site GCCACGGCTTA)
The “recombinant UMI read abundance (log10)” value of the first is lower: 0.00858 for the first, 0.423 for the second.

First: GCCACGACATGGACCGGTTTTCCCGGTAATCCGTATTTGTA (site GCCACGTCTTA)
Second: GCCAGGACATGGACCGGTTTTCCCGGTAATCCGTATTTGTT (site GCCAGGACTAA)
The “recombinant UMI read abundance (log10)” value of the first is lower: 0.283 for the first, 1.71 for the second.

“GCCAGGCCATGGACCGGTTTTCCCGGTAATCCGTATTTGTA (site GCCAAGCCTTA)” and “GCCAGGCCATGGACCGGTTTTCCCGGTAATCCGTATTTGTA (site GCCACGCCTTA)” are within 0.2 log units of each other in “recombinant UMI read abundance (log10)” value: 0.198 for the first, 0.00645 for the second.

“GCCAGGCCATGGACCGGTTTTCCCGGTAATCCGTATTTGTA (site GCCAGGCCTTA)” and “GCCAGGCCATGGACCGGTTTTCCCGGTAATCCGTATTTGTA (site GCCATGCCTTA)” are within 0.2 log units of each other in “recombinant UMI read abundance (log10)” value: 0.112 for the first, 0.00384 for the second.

First: GCCATATCATGGACCGGTTTTCCCGGTAATCCGTATTTGTC (site ACCATATCTGA)
Second: GCCATATCATGGACCGGTTTTCCCGGTAATCCGTATTTGTC (site CCCATATCTGA)
The “recombinant UMI read abundance (log10)” value of the first is higher: 1.74 for the first, 0.61 for the second.
